This is an account of results in patent US11987563B1, “3-cyano 4,5-diphenyl furan-2-carboxamides as antitubercular agents” (KING FAISAL UNIVERSITY, priority 2023, dated 2024).

For one assay, the system named is M. smegmatis. The assay is described as follows: Microplate Alamar Blue Assay (MABA) against M. smegmatis. In kind it is cell-based, Mycobacterium smegmatis. The settings on record: Mycolicibacterium smegmatis; read-out: M. smegmatis (% of inhibition) 50 μg/mL.
Another assay relates to M. tuberculosis H37Rv. The assay is described as follows: Microplate Alamar Blue Assay (MABA) against M. tuberculosis H37Rv. The settings on record: Mycobacterium tuberculosis, read-out: M. tuberculosis H37Rv (% of inhibition) 50 μg/mL. In kind it is cell-based. A general note: Alamar Blue is a resazurin reagent that responds to reducing activity.

Take `N#Cc1c(N)oc(-c2ccccc2)c1-c1ccccc1` [Compound 1, 2-Amino-4,5-diphenylfuran-3-carbonitrile]: the inhibition at 50 µg/mL was determined as 32% in the assay with M. smegmatis and 6% with M. tuberculosis H37Rv.
Taken in the same sequence, the figures for `CC(=O)Nc1oc(-c2ccccc2)c(-c2ccccc2)c1C#N` [Compound 2a, N-(3-Cyano-4,5-diphenylfuran-2-yl)acetamide] were 38% and 27%.
Taken in the same sequence, the figures for `N#Cc1c(NC(=O)c2ccccc2)oc(-c2ccccc2)c1-c1ccccc1` [Compound 2b, N-(3-Cyano-4,5-diphenylfuran-2-yl)benzamide] were 13% and 6%.
As to `N#Cc1c(NC(=O)c2ccc(Cl)cc2)oc(-c2ccccc2)c1-c1ccccc1` [Compound 2c, 4-Chloro-N-(3-cyano-4,5-diphenylfuran-2-yl)benzamide], the inhibition at 50 µg/mL was found to be 25% in the assay with M. smegmatis and 19% with M. tuberculosis H37Rv.
Take `Cc1ccc(S(=O)(=O)Nc2oc(-c3ccccc3)c(-c3ccccc3)c2C#N)cc1` [Compound 2d, N-(3-Cyano-4,5-diphenylfuran-2-yl)-4-methylbenzenesulfonamide]: the inhibition at 50 µg/mL is 37% in the assay with M. smegmatis and 9% with M. tuberculosis H37Rv.
